Melting point data for 30 compounds are collected here from patent US7202255B2, “Substituted [1,4] benzodioxino[2,3-e] isoindole derivatives, method for preparing and pharmaceutical compositions containing same” (Les Laboratoires Servier, priority 2002, dated 2007).

As a reminder, the melting point is the temperature, or range, at which the solid turns liquid.

Counter-ions that a name gives are not always drawn.

For the compound `CN1C(=O)c2c(Oc3ccccc3OS(=O)(=O)C(F)(F)F)cc3c(c2C1=O)c1ccc(OCc2ccccc2)cc1n3C(=O)OC(C)(C)C` [Example 40, tert-Butyl 8-(benzyloxy)-2-methyl-1,3-dioxo-4-(2-{[(trifluoro-methyl)sulphonyl]oxy}phenoxy)-2,3-dihydropyrrolo[3,4-c]-carbazole-6(1H)-carboxylate], the melting point amounted to 186 °C.

Take `COc1ccccc1Oc1cc2c(c3c1C(=O)N(C)C3=O)c1ccccc1n2C(=O)OC(C)(C)C` [Example 34, tert-Butyl 4-(2-methoxyphenoxy)-2-methyl-1,3-dioxo-2,3-dihydropyrrolo[3,4-c]carbazole-6(1H)-carboxylate]: the melting point was more than 333 °C.

Regarding `Cn1c(=O)c2c3oc4ccccc4oc3c3[nH]c4cc(O)ccc4c3c2c1=O` [Example 22, 11-Hydroxy-7-methyl[1,4]benzodioxino[2,3-a]pyrrolo[3,4-c]-carbazole-6,8(7H,13H)-dione], the melting point came out at 360 °C.

In turn, `Cn1c(=O)c2c3oc4ccccc4oc3c3c(oc4cccnc4n3C(=O)Oc3ccccc3)c2c1=O` [Example 3, Phenyl 7-methyl-6,8-dioxo-7,8-dihydro[1,4]benzodioxino[2,3-e]-pyrido[2′,3′:5,6][1,4]oxazino[3,2-g]isoindole-15(6H)-carboxylate] came in with a melting point of more than 250 °C.

The compound `CN1C(=O)c2c(Oc3ccccc3O)cc3[nH]c4cc(O)ccc4c3c2C1=O` [Example 41, 8-Hydroxy-4-(2-hydroxyphenoxy)-2-methylpyrrolo[3,4-c]-carbazole-1,3(2H,6H)-dione] came in with a melting point of 200 °C.

For the compound `CN1C(=O)c2c(Oc3ccccc3OS(=O)(=O)C(F)(F)F)cc3c(c2C1=O)c1ccccc1n3C(=O)OC(C)(C)C` [Example 37, tert-Butyl 2-methyl-1,3-dioxo-4-(2-{[(trifluoromethyl)sulphonyl]-oxy}phenoxy)-2,3-dihydropyrrolo[3,4-c]carbazole-6(1H)-carboxylate], the melting point came out at 182 °C.

Turning to `Cn1c(=O)c2c3oc4ccccc4oc3c3c(oc4ccccc4n3C(=O)Oc3ccccc3)c2c1=O` [Example 1, Phenyl 7-methyl-6,8-dioxo-7,8-dihydro[1,4]benzodioxino[2,3-a]-pyrrolo[3,4-c]phenoxazine-15(6H)carboxylate], the melting point worked out at 130 °C.

`CN(C)CCn1c(=O)c2c3oc4ccccc4oc3c3[nH]c4cc(O)ccc4c3c2c1=O` [Example 24, 7-[2-(Dimethylamino)ethyl]-11-hydroxy[1,4]benzodioxino[2,3-a]-pyrrolo[3,4-c]carbazole-6,8(7H,13H)-dione] gave a melting point of more than 360 °C.

For the compound `CN(C)CCn1c(=O)c2c3oc4ccccc4oc3c3[nH]c4ccc(O)cc4c3c2c1=O` [Example 20, 7-[2-(Dimethylamino)ethyl]-10-hydroxy[1,4]benzodioxino[2,3-a]-pyrrolo[3,4-c]carbazole-6,8(7H,13H)-dione], the melting point was more than 360 °C.

`CN1C(=O)c2c(Oc3ccccc3O)cc3c(c2C1=O)c1ccccc1n3C(=O)OC(C)(C)C` [Example 33, tert-Butyl 4-(2-hydroxyphenoxy)-2-methyl-1,3-dioxo-2,3-dihydropyrrolo[3,4-c]carbazole-6(1H)-carboxylate]: the melting point is 182 °C (dec.).

Consider `COc1ccccc1Oc1cc2[nH]c3ccccc3c2c2c1C(=O)N(C)C2=O` [Example 35, 4-(2-Methoxyphenoxy)-2-methylpyrrolo[3,4-c]carbazole-1,3(2H,6H)-dione], for which the melting point worked out at 228 °C.

`Cn1c(=O)c2c3oc4ccccc4oc3c3[nH]c4ccc(O)cc4c3c2c1=O` [Example 18, 10-Hydroxy-7-methyl[1,4]benzodioxino[2,3-a]pyrrolo[3,4-c]-carbazole-6,8(7H,13H)-dione] gave a melting point of more than 350 °C.

In turn, `CC(C)(C)OC(=O)n1c2cc(OCc3ccccc3)ccc2c2c3c(=O)[nH]c(=O)c3c3oc4ccccc4oc3c21` [Example 27, tert-Butyl 11-(benzyloxy)-6,8-dioxo-7,8-dihydro[1,4]benzo-dioxino[2,3-a]pyrrolo[3,4-c]carbazole-13(6H)-carboxylate] had a melting point of 199 °C.

In turn, `Cn1c(=O)c2c3oc4ccccc4oc3c3[nH]c4cc(F)ccc4c3c2c1=O` [Example 13, 11-Fluoro-7-methyl[1,4]benzodioxino[2,3-a]pyrrolo[3,4-c]carbazole-6,8(7H,13H)-dione] yielded a melting point of more than 360 °C.

Compound `CN(C)CCn1c(=O)c2c3oc4ccccc4[nH]c3c3oc4ccccc4oc3c2c1=O` [Example 2, 7-[2-(Dimethylamino)ethyl][1,4]benzodioxino[2,3-a]pyrrolo[3,4-c]-phenoxazine-6,8(7H,15H)-dione] had a melting point of 150 °C.

For `CN(C)CCn1c(=O)c2c3oc4ccccc4oc3c3[nH]c4ccc(OCc5ccccc5)cc4c3c2c1=O` [Example 19, 10-(Benzyloxy)-7-[2-(dimethylamino)ethyl][1,4]benzodioxino[2,3-a]-pyrrolo[3,4-c]carbazole-6,8(7H,13H)-dione], the melting point was 254 °C (dec.).

In turn, `CN1C(=O)c2c(Oc3ccccc3O)cc3c(c2C1=O)c1ccc(OCc2ccccc2)cc1n3C(=O)OC(C)(C)C` [Example 39, tert-Butyl 8-(benzyloxy)-4-(2-hydroxyphenoxy)-2-methyl-1,3-dioxo-2,3-dihydropyrrolo[3,4-c]carbazole-6(1H)-carboxylate] returned a melting point of 191 °C.

On to `Cn1c(=O)c2c3oc4ccccc4oc3c3c(c4ccccc4n3C(=O)OC(C)(C)C)c2c1=O` [Example 5, tert-Butyl 7-methyl-6,8-dioxo-7,8-dihydro[1,4]benzodioxino[2,3-a]-pyrrolo[3,4-c]carbazole-13(6H)-carboxylate], for which the melting point is 189 °C (dec.).

Regarding `CN1C(=O)c2c(Oc3ccccc3OS(=O)(=O)C(F)(F)F)cc3[nH]c4ccccc4c3c2C1=O` (as salt: methanesulphonate) [Example 38, 2-[(2-Methyl-1,3-dioxo-1,2,3,6-tetrahydropyrrolo[3,4-c]carbazol-4-yl)oxy]phenyl trifluoromethanesulphonate], the melting point turned out to be 214 °C.

Turning to `CN(C)CCn1c(=O)c2c3oc4ccccc4oc3c3[nH]c4cc(F)ccc4c3c2c1=O` [Example 14, 7-[2-(Dimethylamino)ethyl]-11-fluoro[1,4]benzodioxino[2,3-a]-pyrrolo[3,4-c]carbazole-6,8(7H,13H)-dione], the melting point is 301 °C (dec.).

The compound `CC(C)(C)OC(=O)n1c2cc(OCc3ccccc3)ccc2c2c3c(c(Oc4ccccc4O)cc21)C(=O)NC3=O` [Example 30, tert-Butyl 8-(benzyloxy)-4-(2-hydroxyphenoxy)-1,3-dioxo-2,3-dihydropyrrolo[3,4-c]carbazole-6(1H)-carboxylate] showed a melting point of 198 °C.

As for `CN(C)CCn1c(=O)c2c3oc4ccccc4oc3c3[nH]c4cc(OCc5ccccc5)ccc4c3c2c1=O` [Example 23, 11-(Benzyloxy)-7-[2-(dimethylamino)ethyl][1,4]benzodioxino[2,3-a]-pyrrolo[3,4-c]carbazole-6,8(7H,13H)-dione], the melting point is 262 °C (dec.).

Take `CN(C)CCn1c(=O)c2c3oc4ccccc4oc3c3[nH]c4ccccc4c3c2c1=O` [Example 7, 7-[2-(Dimethylamino)ethyl][1,4]benzodioxino[2,3-a]pyrrolo[3,4-c]-carbazole-6,8(7H,13H)-dione]: the melting point was 298 °C (dec.).

Regarding `Cn1c(=O)c2c3oc4ccccc4oc3c3[nH]c4ccc(F)cc4c3c2c1=O` [Example 11, 10-Fluoro-7-methyl[1,4]benzodioxino[2,3-a]pyrrolo[3,4-c]carbazole-6,8(7H,13H)-dione], the melting point is more than 355 °C.

Compound `O=c1[nH]c(=O)c2c1c1oc3ccccc3oc1c1[nH]c3cc(O)ccc3c12` [Example 28, 11-Hydroxy[1,4]benzodioxino[2,3-a]pyrrolo[3,4-c]carbazole-6,8(7H,13H)-dione] yielded a melting point of more than 340 °C.

Take `CN1C(=O)c2c(Oc3ccccc3O)cc3[nH]c4ccc(O)cc4c3c2C1=O` [Example 32, 9-Hydroxy-4-(2-hydroxyphenoxy)-2-methylpyrrolo[3,4-c]-carbazole-1,3(2H,6H)-dione]: the melting point was 277 °C (dec.).

Regarding `CN(C)CCn1c(=O)c2c3oc4cccnc4[nH]c3c3oc4ccccc4oc3c2c1=O` [Example 4, 7-[2-(Dimethylamino)ethyl][1,4]benzodioxino[2,3-e]pyrido[2′,3′:5,6]-[1,4]oxazino[3,2-g]isoindole-6,8(7H,15H)-dione], the melting point is 150 °C (dec.).

In turn, `CN1C(=O)c2c(Oc3ccccc3O)cc3c(c2C1=O)c1cc(OCc2ccccc2)ccc1n3C(=O)OC(C)(C)C` [Example 31, tert-Butyl 9-(benzyloxy)-4-(2-hydroxyphenoxy)-2-methyl-1,3-dioxo-2,3-dihydropyrrolo[3,4-c]carbazole-6(1H)-carboxylate] yielded a melting point of 170 °C.

Consider `CC(C)(C)OC(=O)n1c2ccc(OCc3ccccc3)cc2c2c3c(=O)[nH]c(=O)c3c3oc4ccccc4oc3c21` [Example 25, tert-Butyl 10-(benzyloxy)-6,8-dioxo-7,8-dihydro[1,4]benzo-dioxino[2,3-a]pyrrolo[3,4-c]carbazole-13(6H)-carboxylate], for which the melting point is more than 304 °C.

For the compound `CN(C)CCn1c(=O)c2c3oc4ccccc4oc3c3[nH]c4ccc(F)cc4c3c2c1=O` [Example 12, 7-[2-(Dimethylamino)ethyl]-10-fluoro[1,4]benzodioxino[2,3-a]-pyrrolo[3,4-c]carbazole-6,8(7H,13H)-dione], the melting point was 337 °C (dec.).
